The source of these data is patent publication US20080268069A1, “Mixture having effect of improving insulin resistance, effect of suppressing body weight gain, and effect of preventing and improving fatty liver” (Ryusendo Co., Ltd., priority 2007, published 2008).

Entries after “also recorded” stand apart in the source; their conditions may differ.

Holding throughout (format): in vivo
The test system of test [1] is Zucker fa/fa rat. The experiment in a line: Serum parameters and blood glucose level at autopsy. The settings on record: compared to V group. The procedure: (§1) The Zucker fa/fa rat is polyphagous and used as an obesity model and also as a hyperinsulinemia or insulin resistance model.
(§2) Dietary intake, body weight gain, liver weight, kidney weight, peritesticular fat weight, glucose tolerance test, blood glucose level, serum insulin, total serum cholesterol, serum triglyceride, serum free fatty acid, and serum leptin.
(§3) Significant tests were carried out using the t test. Two-tailed tests were used for the V group, with significance expressed at p<0.05 (*) and p<0.01 (**).
At autopsy, serum insulin and blood glucose level were measured.

The test system of test [2] is Zucker fa/fa rat. The experiment in a line: 28-day feeding study: dietary intake, body weight gain, organ weights. The note with it: compared to V group; for suppression of body weight gain: feeding period of 28 days. The procedure:
as §1
Eight-week old Zucker fa/fa (Obesity model)
Vehicle (V) fa/fa Basic diet
Onion (O) fa/fa Basic diet+5% Onion
as §2, §3

Test [3] has as its system Zucker fa/fa rat. The experiment in a line: Glucose tolerance test. The procedure: as §1, §3
Glucose tolerance tests were carried out in each group of rats at the 2nd week (9-week old) and 4th (11-week old) week after the start of experiment. After 16 hours of fasting, each group of rats was forcedly allowed to ingest 2 g/kg body weight of D-glucose, followed by measuring blood glucose level with time.

Consider “trivalent chromium-nicotinic acid complex [Cr]”, for which, in the test on Zucker fa/fa rat [1] (at autopsy), the blood glucose level entry was “no significant difference” and the serum insulin content result is reported as “no significant difference”. Besides, in the test with Zucker fa/fa rat [1], the “serum free fatty acid (FFA)” value is “No significant difference”, the serum leptin result is recorded as “No significant difference”, the “serum triglyceride (TG)” value is on record as “no significant difference; also recorded: tendency of reduction” and the “total serum cholesterol (TC)” value was “No significant difference”. Besides, in the test with Zucker fa/fa rat [2] (28 days feeding), the weight of kidney entry is given as “no significant difference” and the “weight of peritesticular fat” value is recorded as “no significant difference”. In the test with Zucker fa/fa rat [2], the “suppression of body weight gain” value is on record as “no significant difference”. Further, the “suppression of body weight gain” value in the test on Zucker fa/fa rat [2] (listed as trivalent chromium-nicotinic acid complex) is “neither the trivalent chromium-nicotinic acid complex alone nor the onion extract alone had the effect”. Besides, the “blood glucose level in glucose tolerance test” value in the test with Zucker fa/fa rat [3] (2nd and 4th week, after 2 g/kg D-glucose, no time point stated, compared to V group) is recorded as “no significant difference”. Further, in the test with Zucker fa/fa rat [3] (conclusion from glucose tolerance test and serum insulin, 2 to 4 weeks), the “effect of improving insulin resistance” value is “neither the trivalent chromium-nicotinic acid complex alone nor the onion extract alone had the effect”.
